The values below come from the NIST ThermoML archive (doi:10.1021/je9003178).

Numbers after ± are expanded uncertainties.

The series is described as follows: activity coefficient (dimensionless); of the first substance listed, at infinite dilution; xn = mol fraction of the nth substance listed. To be noted: Liquid, Chromatography, x1 = 0.

For the molecule `CCCC(C)=O` [pentan-2-one] + CCn1cc[n+](C)c1.N#CN=C=[N-], the activity coefficient was found to be 2.92 ± 0.13 (322.65 K), 2.93 ± 0.13 (332.85 K) and 2.9 ± 0.13 (343.15 K).
As for `CCOCC` [diethyl ether] + CCCCCC[N+](C)(C)C.O=S(=O)([N-]S(=O)(=O)C(F)(F)F)C(F)(F)F, the activity coefficient is, setting by setting: (322.65 K) 1.52 ± 0.059; (343.85 K) 1.91 ± 0.084; (352.65 K) 1.94 ± 0.086.
With `CC(C)CC(C)(C)C` [2,2,4-trimethylpentane] + CCn1cc[n+](C)c1.N#CN=C=[N-], the activity coefficient reads like this: (322.65 K) 202 ± 9.5; (332.85 K) 180 ± 8.5; (343.15 K) 162 ± 7.6.
Turning to `CC(C)O` [propan-2-ol] + CCn1cc[n+](C)c1.N#CN=C=[N-], the activity coefficient came out at 1.2 ± 0.04 (322.65 K), 1.14 ± 0.03 (332.85 K) and 1.09 ± 0.03 (343.15 K).
With `CC1CCCC1` [methylcyclopentane] + CCn1cc[n+](C)c1.N#CN=C=[N-], the activity coefficient is, setting by setting: (322.65 K) 50.3 ± 2.4; (332.85 K) 46.5 ± 2.2; (343.15 K) 43.2 ± 2.
As to `CCCO` [propan-1-ol] + CCCCCC[N+](C)(C)C.O=S(=O)([N-]S(=O)(=O)C(F)(F)F)C(F)(F)F, the activity coefficient was 1.83 ± 0.079 (322.65 K), 1.51 ± 0.058 (343.85 K) and 1.41 ± 0.052 (352.65 K).
`C#CCCCCC` [1-heptyne] + CCCCCC[N+](C)(C)C.O=S(=O)([N-]S(=O)(=O)C(F)(F)F)C(F)(F)F: the activity coefficient reads like this: (322.65 K) 3.57 ± 0.16; (343.85 K) 3.5 ± 0.16; (352.65 K) 3.54 ± 0.16.
On the same counts, the results for `CC1CCCC1` [methylcyclopentane] + CCCCCC[N+](C)(C)C.O=S(=O)([N-]S(=O)(=O)C(F)(F)F)C(F)(F)F are 6.61 ± 0.3, 5.96 ± 0.27 and 5.83 ± 0.27.
The like results for `CC(C)CO` [2-methyl-1-propanol] + CCCCCC[N+](C)(C)C.O=S(=O)([N-]S(=O)(=O)C(F)(F)F)C(F)(F)F were, in that order, 2.1 ± 0.095, 1.71 ± 0.071 and 1.63 ± 0.066.
On the same counts, the results for `CCCCCCCCCCCC` [dodecane] + CCCCCC[N+](C)(C)C.O=S(=O)([N-]S(=O)(=O)C(F)(F)F)C(F)(F)F are 68.1 ± 3.2, 55.8 ± 2.6 and 52.9 ± 2.5.
Regarding `CCC[N+](=O)[O-]` [1-nitropropane] + CCn1cc[n+](C)c1.N#CN=C=[N-], the activity coefficient is, setting by setting: (322.65 K) 1.51 ± 0.06; (332.85 K) 1.5 ± 0.06; (343.15 K) 1.49 ± 0.06.
The like results for `ClC(Cl)Cl` [trichloromethane] + CCn1cc[n+](C)c1.N#CN=C=[N-] were, in that order, 0.76 ± 0.03, 0.81 ± 0.03 and 0.86 ± 0.03.
Turning to `CCCCCCCC` [octane] + CCCCCC[N+](C)(C)C.O=S(=O)([N-]S(=O)(=O)C(F)(F)F)C(F)(F)F, the activity coefficient runs as follows: (322.65 K) 19 ± 0.88; (343.85 K) 16.8 ± 0.78; (352.65 K) 16.2 ± 0.75.
The like results for `Cc1ccccc1` [toluene] + CCCCCC[N+](C)(C)C.O=S(=O)([N-]S(=O)(=O)C(F)(F)F)C(F)(F)F were, in that order, 1.31 ± 0.045, 1.33 ± 0.046 and 1.38 ± 0.05.
As for `CCCCCCCCCC` [decane] + CCn1cc[n+](C)c1.N#CN=C=[N-], the activity coefficient (322.65 K) is 699 ± 33, the activity coefficient (332.85 K) turned out to be 627 ± 30 and the activity coefficient (343.15 K) stood at 565 ± 27.
As for `C#CCCCC` [1-hexyne] + CCCCCC[N+](C)(C)C.O=S(=O)([N-]S(=O)(=O)C(F)(F)F)C(F)(F)F, the activity coefficient (322.65 K) is 2.62 ± 0.12, the activity coefficient (343.85 K) was determined as 2.56 ± 0.12 and the activity coefficient (352.65 K) was 2.58 ± 0.12.
As for `C#CCCCCC` [1-heptyne] + CCn1cc[n+](C)c1.N#CN=C=[N-], the activity coefficient by setting is: (322.65 K) 14.5 ± 0.67; (332.85 K) 14.3 ± 0.66; (343.15 K) 14.1 ± 0.65.
The like results for `ClC(Cl)(Cl)Cl` [tetrachloromethane] + CCn1cc[n+](C)c1.N#CN=C=[N-] were, in that order, 4.49 ± 0.2, 4.61 ± 0.21 and 4.71 ± 0.21.
On the same counts, the results for `C=O` [methanal] + CCn1cc[n+](C)c1.N#CN=C=[N-] are 0.32 ± 0.04, 0.35 ± 0.04 and 0.37 ± 0.03.
The like results for `OCC(F)(F)F` [2,2,2-trifluoroethanol] + CCn1cc[n+](C)c1.N#CN=C=[N-] were, in that order, 0.1 ± 0.04, 0.11 ± 0.04 and 0.11 ± 0.04.
`C=CCCCC` [hex-1-ene] + CCn1cc[n+](C)c1.N#CN=C=[N-]: the activity coefficient by setting is: (322.65 K) 43.6 ± 2; (332.85 K) 41.6 ± 1.9; (343.15 K) 39.9 ± 1.9.
The like results for `CCCC=O` [butanal] + CCn1cc[n+](C)c1.N#CN=C=[N-] were, in that order, 2.23 ± 0.1, 2.22 ± 0.1 and 2.21 ± 0.1.
Regarding `CO` [methanol] + CCCCCC[N+](C)(C)C.O=S(=O)([N-]S(=O)(=O)C(F)(F)F)C(F)(F)F, the activity coefficient reads like this: (322.65 K) 1.16 ± 0.035; (343.85 K) 0.971 ± 0.025; (352.65 K) 0.956 ± 0.026.
The like results for `CCCC(C)=O` [pentan-2-one] + CCCCCC[N+](C)(C)C.O=S(=O)([N-]S(=O)(=O)C(F)(F)F)C(F)(F)F were, in that order, 0.612 ± 0.031, 0.638 ± 0.03 and 0.663 ± 0.03.
On to `Cc1ccc(C)cc1` [1,4-dimethylbenzene] + CCCCCC[N+](C)(C)C.O=S(=O)([N-]S(=O)(=O)C(F)(F)F)C(F)(F)F, for which the activity coefficient reads like this: (322.65 K) 1.82 ± 0.079; (343.85 K) 1.82 ± 0.079; (352.65 K) 1.86 ± 0.081.
For `ClCCl` [dichloromethane] + CCCCCC[N+](C)(C)C.O=S(=O)([N-]S(=O)(=O)C(F)(F)F)C(F)(F)F, the activity coefficient is, setting by setting: (322.65 K) 0.678 ± 0.03; (343.85 K) 0.728 ± 0.029; (352.65 K) 0.759 ± 0.029.
With `c1ccsc1` [thiophene] + CCCCCC[N+](C)(C)C.O=S(=O)([N-]S(=O)(=O)C(F)(F)F)C(F)(F)F, the activity coefficient came out at 0.921 ± 0.026 (322.65 K), 0.92 ± 0.026 (343.85 K) and 0.941 ± 0.026 (352.65 K).
Regarding `ClC(Cl)(Cl)Cl` [tetrachloromethane] + CCCCCC[N+](C)(C)C.O=S(=O)([N-]S(=O)(=O)C(F)(F)F)C(F)(F)F, the activity coefficient (322.65 K) came out at 2.42 ± 0.11, the activity coefficient (343.85 K) was determined as 2.39 ± 0.11 and the activity coefficient (352.65 K) stood at 2.42 ± 0.11.
Regarding `C1CCCCCC1` [cycloheptane] + CCCCCC[N+](C)(C)C.O=S(=O)([N-]S(=O)(=O)C(F)(F)F)C(F)(F)F, the activity coefficient by setting is: (322.65 K) 14.3 ± 0.66; (343.85 K) 33.3 ± 1.5; (352.65 K) 43.4 ± 2.
Take `CCCC=O` [butanal] + CCCCCC[N+](C)(C)C.O=S(=O)([N-]S(=O)(=O)C(F)(F)F)C(F)(F)F: the activity coefficient by setting is: (322.65 K) 0.657 ± 0.03; (343.85 K) 0.661 ± 0.03; (352.65 K) 0.677 ± 0.03.
On the same counts, the results for `C1CCCCC1` [cyclohexane] + CCCCCC[N+](C)(C)C.O=S(=O)([N-]S(=O)(=O)C(F)(F)F)C(F)(F)F are 6.6 ± 0.3, 5.9 ± 0.27 and 5.74 ± 0.26.
Turning to `Cc1cccc(C)c1` [1,3-dimethylbenzene] + CCn1cc[n+](C)c1.N#CN=C=[N-], the activity coefficient turned out to be 7.4 ± 0.34 (322.65 K), 8.39 ± 0.38 (332.85 K) and 7.27 ± 0.33 (343.15 K).
As for `CCO` [ethanol] + CCCCCC[N+](C)(C)C.O=S(=O)([N-]S(=O)(=O)C(F)(F)F)C(F)(F)F, the activity coefficient was found to be 2.41 ± 0.11 (322.65 K), 1.28 ± 0.043 (343.85 K) and 1.21 ± 0.039 (352.65 K).
Turning to `CCC(C)CC` [3-methylpentane] + CCn1cc[n+](C)c1.N#CN=C=[N-], the activity coefficient by setting is: (322.65 K) 93.7 ± 4.4; (332.85 K) 87.2 ± 4.1; (343.15 K) 81.4 ± 3.8.
Turning to `CCc1ccccc1` [ethylbenzene] + CCCCCC[N+](C)(C)C.O=S(=O)([N-]S(=O)(=O)C(F)(F)F)C(F)(F)F, the activity coefficient reads like this: (322.65 K) 1.83 ± 0.079; (343.85 K) 1.91 ± 0.084; (352.65 K) 1.97 ± 0.088.
On to `CO` [methanol] + CCn1cc[n+](C)c1.N#CN=C=[N-], for which the activity coefficient was 0.44 ± 0.03 (322.65 K), 0.42 ± 0.03 (332.85 K) and 0.41 ± 0.03 (343.15 K).
For the molecule `CCCCO` [butan-1-ol] + CCCCCC[N+](C)(C)C.O=S(=O)([N-]S(=O)(=O)C(F)(F)F)C(F)(F)F, the activity coefficient is, setting by setting: (322.65 K) 2.25 ± 0.1; (343.85 K) 1.83 ± 0.079; (352.65 K) 1.74 ± 0.073.
As for `C=O` [methanal] + CCCCCC[N+](C)(C)C.O=S(=O)([N-]S(=O)(=O)C(F)(F)F)C(F)(F)F, the activity coefficient runs as follows: (322.65 K) 0.228 ± 0.037; (343.85 K) 0.272 ± 0.036; (352.65 K) 0.311 ± 0.035.
On to `CC(C)OC(C)C` [diisopropyl ether] + CCn1cc[n+](C)c1.N#CN=C=[N-], for which the activity coefficient (322.65 K) is 32.1 ± 1.5, the activity coefficient (332.85 K) came to 32.3 ± 1.5 and the activity coefficient (343.15 K) was found to be 32.4 ± 1.5.
On the same counts, the results for `c1ccncc1` [pyridine] + CCn1cc[n+](C)c1.N#CN=C=[N-] are 0.4 ± 0.03, 1.05 ± 0.03 and 1.07 ± 0.03.
Consider `C[N+](=O)[O-]` [nitromethane] + CCCCCC[N+](C)(C)C.O=S(=O)([N-]S(=O)(=O)C(F)(F)F)C(F)(F)F, for which the activity coefficient (322.65 K) came out at 0.975 ± 0.025, the activity coefficient (343.85 K) was 0.567 ± 0.031 and the activity coefficient (352.65 K) worked out at 0.568 ± 0.031.
The like results for `CCC(=O)CC` [pentan-3-one] + CCCCCC[N+](C)(C)C.O=S(=O)([N-]S(=O)(=O)C(F)(F)F)C(F)(F)F were, in that order, 0.563 ± 0.032, 0.601 ± 0.031 and 0.637 ± 0.03.
